The text below walks through data of patent US12083092B2, “Antiviral 1,3-di-oxo-indene compounds” (Novartis AG, priority 2020, dated 2024).

Bounds are passed on as bounds.

The EC50 is the concentration that produces a half-maximal response.

A short description of data set [1]: Cytotoxicity in mock-infected cells (MTT/MTS). The data set is classed as cell-based. Particulars: human, read-out: CYTOTOX (EC50 μM). Here is the method: In the assay, HeLa (human cervical cancer cells), MRC-5 (human fetal lung fibroblast cells), and RD cells (derived from human rhabdomyosarcoma) were employed. For comparison, ribavirin (Riv), Pleconaril (pleco), and BTA-798 (BTA) were used as controls. Reagents were dissolved at a concentration of 10-40 mg/ml in 100% dimethyl sulfoxide (DMSO). Water-soluble reagents were dissolved in PBS (−) solution and stored at −20° C. On the day of the experiment, they were used in 3 fold to 5 fold concentrations in such a manner that the concentration of dimethyl sulfoxide in each well was between 0.5% and 1%.
For HeLa cells, the drugs were measured for EC50 (50% maximal effective concentration), which is the concentration of a drug inducing a response halfway between the baseline and maximum, using an MTT assay. With regard to RD and MRC-5 cells, CPE was determined using FDA (Fluorescein diacetate) or MTT. In order to determine the effect of drug toxicity on efficacy results, at the time of inoculation with the virus, mock-infection was also included. A virus-free medium was added to a cell culture, which was then subjected to the same treatment as the virus-infected cells inoculated with the virus. That is, the medium was removed after one hour of incubation, and dilutions of drugs in the medium were added once more. Following incubation for 2-3 days, the cells were observed under a microscope and the drugs were determined for CC50 (50% cytotoxic concentration) at which 50% of the cells were killed, using an MTT assay in which counts of viable cells in mock-infected wells containing drugs were compared to those of viable cells in control wells containing no drugs. In an FDA hydrolysis assay, FDA was added to each well after removal of the medium, and incubated for 20-30 min before fluorescence intensity was measured using a spectrofluorometer to determine CPE in the same manner as in MTT.
That is, the survival rate (% survival) of mock-infected cells for cytotoxicity measurement was calculated using the Mathematical Formula 1 below: Cell Drug=Survival by [A (Drug)−A (Background solution)/A (Cell control)−(Background×100% Solution)]
While 100% cell survival means no cytotoxicity of the drug, the highest cytotoxicity is reflected by 0% cell survival. The 50% cytotoxic concentration was defined as the concentration required to reduce the cell number by 50%. This concentration of the drug is represented as CC50. Higher values mean lower cytotoxicity.
The % CPE value for measuring cytotoxicity of a drug was calculated by Mathematical Formula 4 below: % CPE=100×[OD (CC)−OD (Virus+Compound)/OD (CC)−OD (Blank)] In Mathematical Formulae 3 and 4 above, • OD (CC) represents the OD of the background cell culture that is neither induced by a virus nor treated by chemical, • OD (VC) represents the OD of the control cell culture that is induced by a virus but not treated by chemical, • OD (Virus+Compound) represents the OD of the cell culture infected by a virus that has been treated with a concentrated compound, • OD (Compound) represents the OD of the cell culture that has been treated with a concentrated compound only, and OD (Blank) represents the OD of the well to which only the cell culture has been added.
The effective concentration (EC50) represents the concentration of a drug at which 50% of cells are allowed to survive by CPE of an induced virus, and the cytotoxicity concentration (CC50) represents the concentration of a drug at which a compound has killed 50% of cells, and they were calculated by the logarithmic interpolation.

The subject of data set [2] is coxsackievirus B4 (Cox B4). In words: CPE inhibition assay, coxsackievirus B4. The class given is cell-based. Particulars: Enterovirus B.
The test system of data set [3] is poliovirus 1 (PV1). In words: microbe, parasite or virus in culture. Particulars: Enterovirus C, read-out: PV1 (EC50 μM). The class given is cell-based.
For data set [4], the system named is HRV B14. The experiment in a line: CPE inhibition assay, HRV B14. The class given is cell-based. The following applies: Human rhinovirus sp.
Data set [5] is described as follows: C15_C3 REP. Particulars: human, C15 C3 REP (cell-based assay).
Data set [6] relates to HRV A16. In words: CPE inhibition assay, HRV A16. The class given is cell-based. Particulars: Human rhinovirus sp., read-out: A16_CPE (EC50 μM).
The conditions of data set [7]: cited from earlier work.

`CC(=O)NC12C(=O)c3c(N)cccc3C1(O)Oc1cc(Cl)ccc12` (racemic) [Example 13, N-(1-amino-7-chloro-4b-hydroxy-10-oxo-4b,10-dihydro-9bH-indeno[1,2-b]benzofuran-9b-yl)acetamide]: in data set [1], the CC50 is not below 50 µM. In addition, the results for the EC50 in data set [2] and in data set [3] were 0.00267 µM and 0.295 µM, respectively.
`CC(=O)N[C@]12C(=O)c3c(N)cccc3[C@@]1(O)Oc1cc(C3CC3)ccc12` (single isomer, unassigned) [Example 8]: the EC50 was 0.025 µM in data set [4], 0.00093 µM in data set [2], 0.028 µM in data set [3] and 7.85 µM in data set [6]. For the same compound, the values for the CC50 in data set [1] and in data set [5] were not below 50 µM and 50 µM, respectively.
`CC(=O)NC12C(=O)c3c(N)cccc3C1(O)Oc1cc(C3CC3)ccc12` (racemic) [Example 7, N-(1-amino-7-cyclopropyl-4b-hydroxy-10-oxo-4b,10-dihydro-9bH-indeno[1,2-b]benzofuran-9b-yl)acetamide]: the EC50 in data set [4] was 0.016 µM; in data set [2], 0.00168 µM; in data set [6] it was 14.7 µM. Moreover, the CC50 in data set [1] was not below 50 µM; in data set [5] it was 50 µM.
In the case of `CC(C)S(=O)(=O)n1c(N)nc2ccc(/C(=N/O)c3ccccc3)cc21` [Enviroxime], the “therapeutic effects in clinical studies” value in data set [7] (clinical studies) is on record as “insignificant or few therapeutic effects”. For the same compound, in data set [7] (in vivo), the “pharmacokinetics in clinical studies” value is “bad pharmacokinetics” and the “side effects in clinical studies” value is listed as “unwanted side effects”.
Regarding `CC(=O)NC12C(=O)c3c(N)cccc3C1(O)Oc1cc(C(F)(F)F)ccc12` (racemic) [Example 3, N-(1-amino-4b-hydroxy-10-oxo-7-(trifluoromethyl)-4b,10-dihydro-9bH-indeno[1,2-b]benzofuran-9b-yl)acetamide], the EC50 is 0.019 µM in data set [4], 0.00201 µM in data set [2] and 50 µM in data set [6]. The CC50 in data set [1] is not below 50 µM; in data set [5], 21.4 µM.
Regarding `CC(=O)N[C@]12C(=O)c3c(N)cccc3[C@@]1(O)Oc1cc(C)ccc12` (single isomer, unassigned) [Example 17], in data set [1], the CC50 was not below 50 µM. The results for the EC50 in data set [2] and in data set [3] were 0.00174 µM and 0.11 µM, respectively.
Turning to `CC(=O)NC12C(=O)c3c(N)cccc3C1(O)Oc1cc(OC(F)(F)F)ccc12` (racemic) [Example 10, N-(1-amino-4b-hydroxy-10-oxo-7-(trifluoromethoxy)-4b,10-dihydro-9bH-indeno[1,2-b]benzofuran-9b-yl)acetamide], the EC50 in data set [4] turned out to be 0.056 µM; in data set [2], 0.00303 µM; in data set [3] it was 0.335 µM; in data set [6], 39.8 µM. Moreover, the CC50 in data set [1] is not below 50 µM; in data set [5] it was 50 µM.
As for `CC(=O)NC12C(=O)c3c(N)cccc3C1(O)Oc1cc(C)ccc12` (racemic) [Example 16, N-(1-amino-4b-hydroxy-7-methyl-10-oxo-4b,10-dihydro-9bH-indeno[1,2-b]benzofuran-9b-yl)acetamide], the values for the EC50 in data set [4], in data set [2] and in data set [6] were 0.076 µM, 0.00374 µM and 50 µM, respectively. For the same compound, the CC50 in data set [1] is not below 50 µM.
For the compound `CC(=O)N[C@]12C(=O)c3c(N)cccc3[C@@]1(O)Oc1cc(C(F)(F)F)ccc12` (single isomer, unassigned) [Example 4], the CC50 in data set [1] is not below 50 µM. The EC50 in data set [2] was found to be 0.00059 µM; in data set [3], 0.041 µM.
`CC(=O)N[C@@]12C(=O)c3c(N)cccc3[C@]1(O)Oc1cc(C)ccc12` (single isomer, unassigned) [Example 18]: the CC50 was not below 50 µM in data set [1] and 25 µM in data set [5]. In addition, the EC50 in data set [2] was found to be 0.383 µM.
With `CC(=O)N[C@]12C(=O)c3c(N)cccc3[C@@]1(O)Oc1cc(Br)ccc12` [Example 6, N-((4bR,9bR)-1-amino-7-bromo-4b-hydroxy-10-oxo-4b,10-dihydro-9bH-indeno[1,2-b]benzofuran-9b-yl)acetamide], the EC50 in data set [4] came out at 0.049 µM; in data set [2] it was 0.00098 µM; in data set [6], 43.3 µM. Also, the CC50 in data set [1] is not below 50 µM; in data set [5], 50 µM.
On to `CC(=O)NC12C(=O)c3c(N)cccc3C1(O)Oc1ccc(C)cc12` (racemic) [Example 19, N-(1-amino-4b-hydroxy-8-methyl-10-oxo-4b,10-dihydro-9bH-indeno[1,2-b]benzofuran-9b-yl)acetamide], for which the EC50 came to 0.666 µM in data set [4], 0.00871 µM in data set [2], 3.24 µM in data set [3] and 50 µM in data set [6]. Moreover, the CC50 in data set [1] is not below 50 µM; in data set [5], 25 µM.
In the case of `CC(=O)N[C@@]12C(=O)c3c(N)cccc3[C@]1(O)Oc1cc(OC(F)(F)F)ccc12` (single isomer, unassigned) [Example 12], the EC50 was found to be 0.016 µM in data set [4], 0.188 µM in data set [2], 0.015 µM in data set [3] and 1.89 µM in data set [6]. Besides, in data set [1], the CC50 is not below 50 µM.
As for `CC(=O)N[C@@]12C(=O)c3c(N)cccc3[C@]1(O)Oc1cc(Cl)ccc12` (single isomer, unassigned) [Example 15], the CC50 is not below 50 µM in data set [1] and 25 µM in data set [5]. In data set [2], this compound yielded an EC50 of 0.29 µM.
As to `CC(=O)N[C@]12C(=O)c3c(N)cccc3[C@@]1(O)Oc1cc(Cl)ccc12` (single isomer, unassigned) [Example 14], the CC50 in data set [1] is not below 50 µM. Further, the response in data set [2] was half-maximal at 0.00182 µM (EC50).
Regarding `CC(=O)N[C@]12C(=O)c3c(N)cccc3[C@@]1(O)Oc1cc(C(C)C)ccc12` (single isomer, unassigned) [Example 1], the EC50 was determined as 0.016 µM in data set [4], 0.00061 µM in data set [2], 0.015 µM in data set [3] and 1.89 µM in data set [6]. Moreover, the CC50 in data set [1] is not below 50 µM; in data set [5] it was 35.1 µM.
With `COc1ccc2c(c1)O[C@]1(O)c3cccc(N)c3C(=O)[C@]21NC(C)=O` (single isomer, unassigned) [Example 23], in data set [1], the CC50 is not below 50 µM. Besides, the EC50 in data set [2] came out at 0.00293 µM.
In the case of `CC(=O)N[C@@]12C(=O)c3c(N)cccc3[C@]1(O)Oc1cc(C3CC3)ccc12` (single isomer, unassigned) [Example 9], the values for the EC50 in data set [4], in data set [2] and in data set [6] were 3.21 µM, 0.0862 µM and 50 µM, respectively. The CC50 in data set [1] is not below 50 µM; in data set [5], 50 µM.
On to `CC(=O)N[C@]12C(=O)c3c(N)cccc3[C@@]1(O)Oc1ccc(C)cc12` (single isomer, unassigned) [Example 20], for which, in data set [1], the CC50 is not below 50 µM. Also, the EC50 was found to be 0.00443 µM in data set [2] and 2.17 µM in data set [3].
As for `CC(=O)N(C)C12C(=O)c3c(N)cccc3C1(O)Oc1cc(C(F)(F)F)ccc12` (stereo not drawn) [Example 21, N-(1-amino-4b-hydroxy-10-oxo-7-(trifluoromethyl)-4b,10-dihydro-9bH-indeno[1,2-b]benzofuran-9b-yl)-N-methylacetamide], the figures for the CC50 in data set [1] and in data set [5] were not below 50 µM and 25 µM, respectively. This compound displayed an EC50 in data set [2] of 0.0032 µM.
Consider `CC(=O)N[C@@]12C(=O)c3c(N)cccc3[C@]1(O)Oc1cc(C(F)(F)F)ccc12` (single isomer, unassigned) [Example 5], for which the results for the CC50 in data set [1] and in data set [5] were not below 50 µM and 25 µM, respectively. The EC50 in data set [2] came out at 0.0442 µM; in data set [3] it was 9.22 µM.
As to `CC(=O)N[C@]12C(=O)c3c(N)cccc3[C@@]1(O)Oc1cc(OC(F)(F)F)ccc12` (single isomer, unassigned) [Example 11], the CC50 in data set [1] is not below 50 µM. The response in data set [2] was half-maximal at 0.0011 µM (EC50).
